Laboratory results: the supplement of paper PMC10307832

Compound: O=C(Nc1cc(C(F)(F)F)cc(C(F)(F)F)c1)c1cc(Cl)ccc1O [IMD-0354] + CC(=O)c1c(C)c2cnc(Nc3ccc(N4CCNCC4)cn3)nc2n(C2CCCC2)c1=O [Palbociclib] (partner 0.5 µM)
Test: relative viability (nuclei count vs DMSO), 5 days (fraction); higher = more cells survive
Conditions: first compound 0.04 µM
How it was run: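 Lung cancer cell lines in 1536-well plates got either a single drug or a fixed anchor-drug dose together with five library-drug doses (not always all listed) in √10 steps, by pin tool, on the day after seeding. Nuclei were counted after 5 days, and relative viability is the treated-to-vehicle ratio of nuclei counts. Values are medians of duplicate plates.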

Cell Line | relative viability
NCI-H522 | 1.14
NCI-H727 | 0.502
NCI-H1650 | 0.192
NCI-H1993 | 0.657
SK-LU-1 | 0.398
NCI-H838 | 0.223
LCLC-103H | 0.469
NCI-H520 | 0.199
NCI-H2126 | 0.35
EMC-BAC-2 | 0.534
NCI-H2085 | 0.461
HCC-366 | 0.474
NCI-H1666 | 0.737
NCI-H1395 | 0.679
NCI-H2087 | 0.238
NCI-H2342 | 0.491
LK-2 | 0.521
H3255 | 0.33
COR-L23 | 0.303
COR-L 105 | 0.404
LOU-NH91 | 0.538

Cell Line | relative viability
ChaGo-K-1 | 0.844
NCI-H358 | 0.144
NCI-H2405 | 0.594
HOP-62 | 0.454
HCC-44 | 1.06
SW 900 | 0.517
LU99A | 0.295
BEN | 0.432
HARA | 0.237
NCI-H1648 | 0.278
HCC-78 | 0.538
NCI-H322M | 0.507
LCLC-97TM1 | 0.227
NCI-H2009 | 0.179
A-427 | 0.516
NCI-H441 | 0.214
NCI-H661 | 0.397
NCI-H1734 | 0.352
NCI-H460 | 0.147
NCI-H2347 | 0.39
SW 1573 | 0.533

Cell Line | relative viability
NCI-H1793 | 0.298
201T | 0.35
NCI-H1915 | 0.461
HCC-827 | 0.514
LXF-289 | 0.565
NCI-H23 | 0.482
NCI-H647 | 0.481
CAL-12T | 0.633
NCI-H1651 | 0.504
EPLC-272H | 0.267
NCI-H2228 | 0.618
NCI-H1792 | 0.69
NCI-H1355 | 0.385
NCI-H3122 | 0.18
NCI-H1437 | 0.338
NCI-H1755 | 0.448
NCI-H2023 | 0.495
HCC-15 | 0.733
NCI-H1944 | 0.289
PC-14 | 0.574

Same assay, conditions: first compound 0.1265 µM

Cell Line | relative viability
NCI-H522 | 0.87
NCI-H727 | 0.582
NCI-H1650 | 0.389
NCI-H1993 | 0.384
SK-LU-1 | 0.394
NCI-H838 | 0.23
LCLC-103H | 0.468
NCI-H520 | 0.22
NCI-H2126 | 0.361
EMC-BAC-2 | 0.522
NCI-H2085 | 0.439
HCC-366 | 0.535
NCI-H1666 | 0.616
NCI-H1395 | 0.682
NCI-H2087 | 0.196
NCI-H2342 | 0.511
LK-2 | 0.614
H3255 | 0.331
COR-L23 | 0.278
COR-L 105 | 0.395
LOU-NH91 | 0.464

Cell Line | relative viability
ChaGo-K-1 | 0.917
NCI-H358 | 0.136
NCI-H2405 | 0.509
HOP-62 | 0.39
HCC-44 | 0.964
SW 900 | 0.629
LU99A | 0.418
BEN | 0.428
HARA | 0.202
NCI-H1648 | 0.227
HCC-78 | 0.506
NCI-H322M | 0.5
LCLC-97TM1 | 0.225
NCI-H2009 | 0.222
A-427 | 0.525
NCI-H441 | 0.196
NCI-H661 | 0.385
NCI-H1734 | 0.352
NCI-H460 | 0.138
NCI-H2347 | 0.418
SW 1573 | 0.315

Cell Line | relative viability
NCI-H1793 | 0.317
201T | 0.387
NCI-H1915 | 0.489
HCC-827 | 0.491
LXF-289 | 0.61
NCI-H23 | 0.418
NCI-H647 | 0.485
CAL-12T | 0.423
NCI-H1651 | 0.507
EPLC-272H | 0.343
NCI-H2228 | 0.618
NCI-H1792 | 0.61
NCI-H1355 | 0.41
NCI-H3122 | 0.185
NCI-H1437 | 0.29
NCI-H1755 | 0.456
NCI-H2023 | 0.346
HCC-15 | 0.664
NCI-H1944 | 0.324
PC-14 | 0.533

Same assay, conditions: first compound 0.4 µM

Cell Line | relative viability
NCI-H522 | 0.881
NCI-H727 | 0.667
NCI-H1650 | 0.311
NCI-H1993 | 0.501
SK-LU-1 | 0.319
NCI-H838 | 0.178
LCLC-103H | 0.459
NCI-H520 | 0.215
NCI-H2126 | 0.364
EMC-BAC-2 | 0.423
NCI-H2085 | 0.433
HCC-366 | 0.259
NCI-H1666 | 0.601
NCI-H1395 | 0.656
NCI-H2087 | 0.21
NCI-H2342 | 0.499
H3255 | 0.306
COR-L23 | 0.185
COR-L 105 | 0.394
LOU-NH91 | 0.242

Cell Line | relative viability
ChaGo-K-1 | 0.55
NCI-H358 | 0.119
NCI-H2405 | 0.457
HOP-62 | 0.299
HCC-44 | 0.922
SW 900 | 0.478
LU99A | 0.325
BEN | 0.359
HARA | 0.314
NCI-H1648 | 0.224
HCC-78 | 0.322
NCI-H322M | 0.5
LCLC-97TM1 | 0.111
NCI-H2009 | 0.191
A-427 | 0.441
NCI-H441 | 0.366
NCI-H661 | 0.369
NCI-H1734 | 0.314
NCI-H460 | 0.206
